Laboratory results published in patent publication US5145990A, “Phosphorous containing dhp enzyme inhibitors” (Merck & Co., Inc., priority 1991, dated 1992).

Target: T1, renal dehydropeptidase I (renal dipeptidase, E.C. 3.4.13.11) (Sus scrofa, UniProt P22412)
T1 construct: solubilized preparation of […] isolated from hog kidneys; from tissue; host or cells: hog kidney
T1 sequence (P22412 17-409): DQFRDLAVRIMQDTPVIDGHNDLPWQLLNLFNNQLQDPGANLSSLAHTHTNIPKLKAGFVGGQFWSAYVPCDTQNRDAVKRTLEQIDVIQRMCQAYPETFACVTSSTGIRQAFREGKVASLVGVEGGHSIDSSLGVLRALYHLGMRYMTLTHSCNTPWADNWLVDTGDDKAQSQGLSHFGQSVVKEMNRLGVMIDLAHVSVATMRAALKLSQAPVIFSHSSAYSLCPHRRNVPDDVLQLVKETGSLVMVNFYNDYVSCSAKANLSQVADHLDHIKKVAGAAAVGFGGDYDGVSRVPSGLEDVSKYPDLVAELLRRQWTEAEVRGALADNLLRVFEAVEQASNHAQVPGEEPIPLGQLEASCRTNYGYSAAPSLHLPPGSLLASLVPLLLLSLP
Experiment: In vitro screen: inhibition of hydrolysis of glycyldehydrophenylalanine (GDP) by solubilized renal dipeptidase
Type: biochemical
Conditions: Table I, structure II; hog kidney enzyme, GDP 0.05 mM, pH 7.1, 37° C., 275 nm
Experimental: Renal dehydropeptidase activity was first described by M. Bergmann and H. Schleich, Z. Physiol. Chem., 205, 65 (1932); see also B. J. Campbell et al., Biochem. Biophys. Acta, 118, 371 (1966) and references therein.
This measured the ability of compounds to inhibit hydrolysis of glycyldehydrophenylalanine (GDP) by a solubilized preparation of […] isolated from hog kidneys. The procedure is as follows: to a 1 ml system containing 50 mM "MOPS" (3-(N-morpholino)-propanesulfonic acid) buffer, pH 7.1 is added 5 mg of lyophilized enzyme, and the test compound at a final concentration of 0.1 mM. After a five minute incubation of 37° C., GDP is added to a final concentration of 0.05 mM. Incubation is continued for 10 minutes, at 37° C. and hydrolysis of GDP is measured by the change in optical density with time at 275 nm. Inhibition of the enzyme is gauged by comparison to a standard run containing no inhibitor and is expressed as the inhibitor binding constant K. This is the concentration of the inhibitor which achieves 50% inhibition of enzyme.

Compound | Ki
CC(C)/C=C(/CP(=O)(O)C(N)CC1CCCCC1)C(=O)O (centres unmarked) | 21 nM
CC(C)/C=C(\CP(=O)(O)C(N)CC1CCCCC1)C(=O)O (centres unmarked) | 2.1 nM
